A short description of data set [1]: Inhibition of N-type calcium channel in human IMR-32 cells assessed as intracellular calcium concentration by FLIPR. It counts as cell-based. A general note: Calcium flux is commonly read through the fluorescence of an indicator in the cells.
Another data set deals with hERG (KCNH2) (Homo sapiens, UniProt Q12809). In words: Inhibition of human ERG expressed in CHO cells at 10 uM by Rb efflux assay. It counts as cell-based. As to conditions: CHO cells expressing human ERG.
The target in data set [2] is Voltage-gated inwardly rectifying potassium channel KCNH2 (Homo sapiens, UniProt Q12809). The data set can be described thus: Inhibition of human ERG expressed in CHO cells by Rb efflux assay.
A short description of data set [3]: Aqueous solubility in Japanese Pharmacopoeia at pH 1.2. As to conditions: aqueous Japanese Pharmacopoeia medium, pH 1.2, pH 1.2. Format: physicochemical.
A short description of data set [4]: Aqueous solubility in Japanese Pharmacopoeia at pH 6.8. Format: physicochemical. As to conditions: aqueous Japanese Pharmacopoeia medium, pH 6.8, pH 6.8.
The next data set deals with T1, Cytochrome P450 1A2 (Homo sapiens, UniProt P05177).
T1 sequence (P05177 whole entry): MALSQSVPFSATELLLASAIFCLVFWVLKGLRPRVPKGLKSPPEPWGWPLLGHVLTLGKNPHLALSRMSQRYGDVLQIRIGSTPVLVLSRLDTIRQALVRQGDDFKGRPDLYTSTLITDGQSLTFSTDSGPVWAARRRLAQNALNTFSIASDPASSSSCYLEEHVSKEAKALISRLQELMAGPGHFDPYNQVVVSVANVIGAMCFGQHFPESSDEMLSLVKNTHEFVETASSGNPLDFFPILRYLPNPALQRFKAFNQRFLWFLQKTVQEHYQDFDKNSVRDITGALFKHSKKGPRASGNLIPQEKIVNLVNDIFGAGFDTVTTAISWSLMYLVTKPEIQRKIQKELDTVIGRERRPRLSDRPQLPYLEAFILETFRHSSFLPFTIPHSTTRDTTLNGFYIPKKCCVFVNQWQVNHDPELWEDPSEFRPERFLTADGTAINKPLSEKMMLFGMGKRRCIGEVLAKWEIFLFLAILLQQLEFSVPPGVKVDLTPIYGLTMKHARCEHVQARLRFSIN
The data set can be described thus: Inhibition of human recombinant CYP1A2 after 15 mins.

The next data set deals with Cytochrome P450 2C9 (Homo sapiens, UniProt P11712). In words: Inhibition of human recombinant CYP2C9 after 45 mins.
Another data set has as its target Cytochrome P450 2C19 (Homo sapiens, UniProt P33261). In words: Inhibition of human recombinant CYP2C19 after 30 mins.
Another data set has as its target Cytochrome P450 2D6 (Homo sapiens, UniProt P10635). In words: Inhibition of human recombinant CYP2D6 after 30 mins.
The next data set concerns the target CYP3A4 (Homo sapiens, UniProt P08684). The data set can be described thus: Inhibition of CYP3A4 in human liver microsomes assessed as residual activity assessed as residual activity using midazolam as substrate preincubated for 30 mins by LC/MS/MS analysis. As to conditions: probe midazolam. Background: Liver microsomes are a subcellular fraction often used to study metabolism.

In data set [5] the test system is Rattus norvegicus. In words: Antiallodynic activity in Sprague-Dawley rat spinal nerve ligation model of neuropathic pain assessed as reduction in mechanical allodynia at 3 to 30 mg/kg, po. It counts as functional, organism-based.
Data set [6] has as its system Rattus norvegicus. In words: Antiallodynic activity in Sprague-Dawley rat spinal nerve ligation model of neuropathic pain assessed as maximal reduction in mechanical allodynia at 30 mg/kg, po. It counts as functional, organism-based. Set-up: dose 30 mg/kg.
Data set [7] can be described thus: Inhibition of N-type calcium channel in human IMR-32 cells under holding potential at -70 mV inactivated state by whole cell patch-clamp electrophysiological method. A general note: Patch clamp records ionic current or voltage across a cell membrane.
The nature of data set [8]: Inhibition of N-type calcium channel in human IMR-32 cells under holding potential at -90 mV state-biased condition by whole cell patch-clamp electrophysiological method.
The next data set concerns IMR-32. The data set can be described thus: Selectivity ratio of IC50 for human ERG to IC50 for N-type calcium channel in human IMR-32 cells. Format: cell-based.

Active and inactive are the calls of the source. No cut-off for these calls is given here. Bounds are passed on as bounds.

Voltage-gated inwardly rectifying potassium channel KCNH2, sequence (Q12809 whole entry): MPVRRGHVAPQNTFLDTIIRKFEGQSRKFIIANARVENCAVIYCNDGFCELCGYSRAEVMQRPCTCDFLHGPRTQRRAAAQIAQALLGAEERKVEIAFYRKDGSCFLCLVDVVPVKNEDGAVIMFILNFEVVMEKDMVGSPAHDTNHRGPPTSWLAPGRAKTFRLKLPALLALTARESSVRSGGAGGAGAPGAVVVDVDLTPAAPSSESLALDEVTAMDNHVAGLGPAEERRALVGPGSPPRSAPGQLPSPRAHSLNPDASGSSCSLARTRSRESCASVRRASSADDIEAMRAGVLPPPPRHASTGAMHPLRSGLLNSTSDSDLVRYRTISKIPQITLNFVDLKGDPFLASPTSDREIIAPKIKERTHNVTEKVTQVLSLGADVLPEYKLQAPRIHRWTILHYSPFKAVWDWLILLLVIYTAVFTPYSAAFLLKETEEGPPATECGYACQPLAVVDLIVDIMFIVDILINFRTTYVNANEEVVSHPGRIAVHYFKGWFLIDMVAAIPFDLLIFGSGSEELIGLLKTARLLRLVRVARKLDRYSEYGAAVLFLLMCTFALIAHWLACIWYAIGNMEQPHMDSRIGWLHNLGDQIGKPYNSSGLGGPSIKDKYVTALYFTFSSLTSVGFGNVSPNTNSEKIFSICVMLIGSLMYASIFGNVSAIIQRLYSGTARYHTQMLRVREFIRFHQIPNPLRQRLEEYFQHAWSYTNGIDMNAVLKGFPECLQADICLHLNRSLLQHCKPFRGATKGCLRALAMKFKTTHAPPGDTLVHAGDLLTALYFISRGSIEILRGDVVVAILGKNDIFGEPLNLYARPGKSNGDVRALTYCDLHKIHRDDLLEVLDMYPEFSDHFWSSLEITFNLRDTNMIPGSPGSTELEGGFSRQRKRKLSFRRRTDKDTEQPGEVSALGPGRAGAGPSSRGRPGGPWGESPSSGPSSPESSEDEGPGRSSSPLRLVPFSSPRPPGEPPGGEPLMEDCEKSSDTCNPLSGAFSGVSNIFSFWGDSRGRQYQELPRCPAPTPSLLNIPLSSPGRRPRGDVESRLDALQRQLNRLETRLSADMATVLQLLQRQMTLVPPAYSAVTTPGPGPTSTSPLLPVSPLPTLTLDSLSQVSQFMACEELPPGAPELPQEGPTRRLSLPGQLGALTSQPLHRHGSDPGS
hERG (KCNH2), sequence (Q12809 whole entry): as above
Cytochrome P450 2C9, sequence (P11712 whole entry): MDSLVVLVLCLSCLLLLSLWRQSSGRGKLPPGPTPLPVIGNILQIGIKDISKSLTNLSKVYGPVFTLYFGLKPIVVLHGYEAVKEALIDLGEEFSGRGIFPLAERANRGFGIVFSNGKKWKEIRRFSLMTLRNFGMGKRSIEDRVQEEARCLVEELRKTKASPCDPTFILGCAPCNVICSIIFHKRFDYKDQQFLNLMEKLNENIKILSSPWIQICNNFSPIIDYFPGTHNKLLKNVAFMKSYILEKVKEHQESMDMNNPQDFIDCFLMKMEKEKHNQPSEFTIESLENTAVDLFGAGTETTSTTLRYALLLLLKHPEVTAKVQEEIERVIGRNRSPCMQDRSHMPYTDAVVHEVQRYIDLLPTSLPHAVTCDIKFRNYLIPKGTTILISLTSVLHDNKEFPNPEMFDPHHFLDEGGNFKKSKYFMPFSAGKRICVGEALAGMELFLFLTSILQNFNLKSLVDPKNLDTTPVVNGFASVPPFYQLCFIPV
CYP3A4, sequence (P08684 whole entry): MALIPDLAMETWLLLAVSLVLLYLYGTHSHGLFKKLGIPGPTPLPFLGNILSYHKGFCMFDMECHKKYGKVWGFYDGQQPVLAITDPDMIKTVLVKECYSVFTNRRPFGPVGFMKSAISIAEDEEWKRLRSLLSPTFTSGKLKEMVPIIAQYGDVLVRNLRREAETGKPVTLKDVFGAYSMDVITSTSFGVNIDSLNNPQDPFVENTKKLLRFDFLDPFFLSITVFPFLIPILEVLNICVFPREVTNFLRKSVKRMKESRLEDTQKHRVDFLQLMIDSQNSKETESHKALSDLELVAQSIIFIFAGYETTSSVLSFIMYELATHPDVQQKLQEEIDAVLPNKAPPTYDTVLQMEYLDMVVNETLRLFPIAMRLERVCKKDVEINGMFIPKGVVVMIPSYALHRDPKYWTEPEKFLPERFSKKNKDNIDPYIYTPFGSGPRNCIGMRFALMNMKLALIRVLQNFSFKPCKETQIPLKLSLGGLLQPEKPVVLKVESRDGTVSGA
Cytochrome P450 2D6, sequence (P10635 whole entry): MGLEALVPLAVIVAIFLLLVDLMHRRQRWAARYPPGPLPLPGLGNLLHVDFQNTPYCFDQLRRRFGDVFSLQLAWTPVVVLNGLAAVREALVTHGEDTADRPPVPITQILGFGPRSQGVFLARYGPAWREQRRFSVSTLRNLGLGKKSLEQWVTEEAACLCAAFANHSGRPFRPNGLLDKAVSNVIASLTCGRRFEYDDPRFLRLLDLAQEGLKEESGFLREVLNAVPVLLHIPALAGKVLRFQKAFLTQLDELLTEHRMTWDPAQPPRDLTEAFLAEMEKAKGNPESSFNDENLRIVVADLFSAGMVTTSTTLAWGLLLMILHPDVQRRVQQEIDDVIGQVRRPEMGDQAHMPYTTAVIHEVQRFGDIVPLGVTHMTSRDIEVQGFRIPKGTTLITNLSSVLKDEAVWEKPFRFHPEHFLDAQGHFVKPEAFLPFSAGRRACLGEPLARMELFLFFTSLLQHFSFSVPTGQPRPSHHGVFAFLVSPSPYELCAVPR
Cytochrome P450 2C19, sequence (P33261 whole entry): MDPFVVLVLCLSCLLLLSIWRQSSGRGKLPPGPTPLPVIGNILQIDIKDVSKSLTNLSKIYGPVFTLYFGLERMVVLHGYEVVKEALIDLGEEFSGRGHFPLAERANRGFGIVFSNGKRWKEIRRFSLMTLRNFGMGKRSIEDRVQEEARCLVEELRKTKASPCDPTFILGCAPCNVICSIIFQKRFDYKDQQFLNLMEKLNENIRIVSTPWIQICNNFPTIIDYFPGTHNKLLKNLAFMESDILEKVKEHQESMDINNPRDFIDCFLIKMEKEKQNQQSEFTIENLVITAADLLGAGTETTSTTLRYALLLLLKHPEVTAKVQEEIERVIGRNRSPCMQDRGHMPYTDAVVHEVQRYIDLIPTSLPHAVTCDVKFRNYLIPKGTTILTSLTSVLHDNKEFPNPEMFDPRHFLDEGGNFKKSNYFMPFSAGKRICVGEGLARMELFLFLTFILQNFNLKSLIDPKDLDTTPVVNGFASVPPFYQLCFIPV

For `O=C(CNCCc1ccccc1)N1CCc2ccccc2C1C1CCCCC1` (stereo unspecified), the IC50 in data set [1] stood at 1300 nM. The same compound gave an inhibition at 10 µM at hERG (KCNH2) of 57.8%.

On to `COc1c(OC(C)(C)C)cc(CN2CC(=O)N(CCCCCC(c3ccc(F)cc3)c3ccc(F)cc3)CC2=O)cc1OC(C)(C)C`, for which the IC50 was 430 nM in data set [1] and above 100000 nM in data set [2]. Besides, the solubility in data set [3] and in [4] was below 1 µM in each case.

As for `COc1ccccc1CCNCC(=O)N1CCc2ccccc2C1C1CCCCC1` (stereo unspecified), the 50% inhibitory concentration (IC50) in data set [1] stood at 600 nM; on Cytochrome P450 1A2, 26000 nM; at Cytochrome P450 2C9 it was 4800 nM; on Cytochrome P450 2C19 it was 3000 nM; at Cytochrome P450 2D6, 370 nM. Further, the solubility in [3] and in [4] was above 100 µM in each case. Besides, at CYP3A4, the activity at 30 min was found to be 53%.

As to `O=C(CNCC1(O)CCCCC1)N1CCc2ccccc2[C@@H]1C1CCCCC1`, the figures for the IC50 in [1], in data set [7] and in [8] were 1000 nM, 1700 nM and 12700 nM, respectively. For the same compound, the inhibition result with Rattus norvegicus [5] and with Rattus norvegicus [6] was “Active” in each case.

As to `O=C(CNCC1(O)CCCCCC1)N1CCc2ccccc2C1C1CCCCC1` (stereo unspecified), the half-maximal inhibitory concentration (IC50) in data set [1] stood at 2600 nM; in data set [2], 50100 nM. For the same compound, in the data set on IMR-32, the Ratio IC50 turned out to be 19.6.

Regarding `COC(=O)c1ccc(CCNCC(=O)N2CCc3ccccc3C2C2CCCCC2)cc1` (stereo unspecified), in data set [1], the IC50 amounted to 2300 nM. Moreover, the inhibition at 10 µM against hERG (KCNH2) was 71.7%.

Take `COc1cc(CN2CCN(CCCCCC(c3ccc(F)cc3)c3ccc(F)cc3)CC2)cc(OC)c1OC`: the IC50 stood at 1100 nM in data set [1] and 3400 nM in [2]. Besides, the solubility was above 100 µM in data set [3] and below 1 µM in data set [4].

For the compound `O=C(CNCC1(O)CCCC1)N1CCc2ccccc2C1C1CCCCC1` (stereo unspecified), the concentration for half-maximal inhibition (IC50) in data set [1] amounted to 2800 nM; in data set [2] it was 78600 nM. Moreover, the Ratio IC50 in the data set with IMR-32 was 28.1.

Take `O=C(CNCCc1ccccc1O)N1CCc2ccccc2C1C1CCCCC1` (stereo unspecified): the half-maximal inhibitory concentration (IC50) in data set [1] was found to be 3000 nM. This compound came in with an inhibition at 10 µM against hERG (KCNH2) of 54.4%.

Regarding `O=C(CNCCc1c(Cl)cccc1Cl)N1CCc2ccccc2C1C1CCCCC1` (stereo unspecified), the concentration for half-maximal inhibition (IC50) in data set [1] is 2400 nM.

For `O=C(O)c1ccc(CCNCC(=O)N2CCc3ccccc3C2C2CCCCC2)cc1` (stereo unspecified), the IC50 in [1] was above 10000 nM. At hERG (KCNH2), this compound came in with an inhibition at 10 µM of 9%.

In the case of `O=C(CNCCC1(O)CCCCC1)N1CCc2ccccc2C1C1CCCCC1` (stereo unspecified), in [1], the IC50 was found to be 1700 nM.

Turning to `O=C(CNCC1CCCCC1)N1CCc2ccccc2C1C1CCCCC1` (stereo unspecified), the figures for the concentration for half-maximal inhibition (IC50) in data set [1] and in data set [2] were 1300 nM and 26000 nM, respectively. Also, the Ratio IC50 in the data set with IMR-32 was determined as 20.

For the compound `O=C(CNCC1(O)CCCCC1)N1CCc2ccccc2[C@H]1C1CCCCC1`, in data set [1], the IC50 turned out to be 1500 nM.

In general, IC50 refers to the concentration that inhibits the measured activity by half. Usually inhibition stands for the percentage by which the read-out fell short of the control. Usually solubility stands for how much of the substance goes into solution per volume. A low value points to little dissolved substance.
